{
  "source": "patent US5505944A",
  "about": "“Physiologically active substance NK175203, process for production thereof and pharmaceutical use thereof” (Nippon Kayaku Kabushiki Kaisha, priority 1992, dated 1996)",
  "tested_on": "bone marrow cells",
  "test": "Bone marrow cell proliferation activity (uptake of [3H]-thymidine)",
  "assay_type": "cell-based, C57BL/6 mouse",
  "settings": "GM-CSF 100 U/ml alone, NK175203 0 μg/ml",
  "procedure": "The femur was withdrawn from C57BL/6 mouse (10 weeks old) and the bone marrow cells were washed out in Eagle's MEM medium. After allowing to stand at 37° C. for 2 hours in 5% CO2, the supernatant was gently taken to recover the suspended cells alone. The cells were centrifuged at 1200 rpm for 5 minutes to collect the cells. After rinsing with α-MEM medium, the cells were suspended in 20% FBS-containing α-MEM medium. The thus obtained bone marrow cells were inoculated on a 96-well plate in a concentration of 7.5×10^5 cells/200 μl/well, together with the physiologically active substance NK175203 of the present invention or GM-CSF (Lantrell, M. A. et al., Proc. Natl. Acad. Sci., 8.2, 6250-6254, 1985). Incubation was then performed at 37° C. for 112 hours in 5% CO2. Finally ^3 H-thymidine of 37 KBq was added to the system. After culturing for 8 hours, uptake of ^3 H-thymidine into the cells was determined by a liquid scintillation counter.",
  "data": [
    {"substance": "GM-CSF: GM-CSF (Lantrell, M. A. et al., Proc. Natl. Acad. Sci.)", "values": [
      {"measurement": "Uptake of [3H]-Thymidine, mean ± standard error", "result": "33484.4 ± 2136.1"},
      {"measurement": "Uptake of [3H]-Thymidine, %", "setting": "reference (100%) of the GM-CSF series", "result": 100, "unit": "%"}
    ]}
  ]
}
